Columns and labels:
Format in all cases: cell-based, human
MDA-MB-231 = assay: SRB colorimetric cytotoxicity assay, MDA-MB-231; conditions: Homo sapiens, breast adenocarcinoma
From the text: (§1) The aim of this assay is to evaluate the in vitro cytostatic (ability to delay or arrest tumor cell growth) or cytotoxic (ability to kill tumor cells) activity of the samples being tested.
(§2) A colorimetric assay, using sulforhodamine B (SRB) reaction has been adapted to provide a quantitative measurement of cell growth and viability (following the technique described by V. Vichai and K. Kirtikara (2006) Nature Protoc. 1, 1112-1116.)
(§3) This form of assay employs 96-well cell culture microplates. All the cell lines used in this study were obtained from the American Type Culture Collection (ATCC), unless otherwise indicated, and derive from different types of human cancer.
(§4) Cells were maintained in Dulbecco's Modified Eagle Medium (DMEM) (for A549, HT-29 and MDA-MB-231) or RPMI (for PSN-1) supplemented with 10% Fetal Bovine Serum (FBS), 2 mM L-glutamine, 100 U/mL penicillin and 100 U/mL streptomycin at 37° C., 5% CO2 and 98% humidity. For the experiments, cells were harvested from subconfluent cultures using trypsinization and resuspended in fresh medium before counting and plating.
(§5) Cells were seeded in 96 well microtiter plates, at 5×10^3 cells per well in aliquots of 150 μL, and allowed to attach to the plate surface for 18 hours (overnight) in drug free medium. After that, one control (untreated) plate of each cell line was fixed (as described below) and used for time zero reference value. […] After 72 hours treatment, the antitumor effect was measured by using the SRB methodology: Briefly, cells were washed twice with PBS, fixed for 15 min in 1% glutaraldehyde solution at room temperature, rinsed twice in PBS, and stained in 0.4% SRB solution for 30 min at room temperature. Cells were then rinsed several times with 1% acetic acid solution and air-dried at room temperature. SRB was then extracted in 10 mM trizma base solution and the absorbance measured in an automated spectrophotometric plate reader at 490 nm. Effects on cell growth and survival were estimated by applying the NCI algorithm (Boyd M R and Pauli K D. Drug Dev Res. 1995, 34, 91-104).
(§6) Using the mean±SD of triplicates, a dose-response curve was automatically generated using nonlinear regression analysis to a 4-parameter logistic curve. Three reference parameters were calculated (NCI algorithm) by automatic interpolation: GI50=compound concentration that produces 50% cell growth inhibition, as compared to control cultures; TGI=total cell growth inhibition (cytostatic effect), as compared to control cultures, and LC50=compound concentration that produces 50% net cell killing (cytotoxic effect).

HT29 = assay: SRB colorimetric cytotoxicity assay, HT29; conditions: Homo sapiens, colorectal adenocarcinoma
From the text: as §1, §2, §3, §4, §5, §6

A549 = assay: SRB colorimetric cytotoxicity assay, A549; conditions: Homo sapiens, lung carcinoma (NSCLC)
From the text: as §1, §2, §3, §4, §5, §6

PSN-1 = assay: SRB colorimetric cytotoxicity assay, PSN-1; conditions: Homo sapiens, pancreatic adenocarcinoma
From the text: as §1, §2, §3, §4, §5, §6

[1] = MDA-MB-231, 72 h, 72 hours treatment
[2] = HT-29, 72 h, 72 hours treatment

SMILES	GI50 (MDA-MB-231; [1]) [nM]	GI50 (HT29; [2]) [nM]	GI50 (A549; A549, 72 h, 72 hours treatment) [nM]	GI50 (PSN-1; PSN1, 72 h, 72 hours treatment) [nM]	GI50 (MDA-MB-231; MDA-MB-231, 72 hours treatment) [nM]	GI50 (HT29; HT-29, 72 hours treatment) [nM]	GI50 (A549; A549, 72 hours treatment) [nM]	GI50 (PSN-1; PSN1, 72 hours treatment) [nM]
CCC[C@@H](NC(=O)[C@]1(C)CSC(/C(C)=N/O)=N1)c1cc(OC)cc(=O)o1 [Compound 1]	34.1	14.4	11.5	28.8	–	–	–	–
COc1cc([C@@H](CCC(F)(F)F)NC(=O)[C@]2(C)CSC(/C(C)=N\O)=N2)oc(=O)c1 [Compound 140a]	2270	1520	2530	2760	–	–	–	–
CCC[C@@H](NC(=O)[C@]1(C)CSC(/C(C)=N/OCCCCO)=N1)c1cc(OC)cc(=O)o1 [Compound 147]	287	137	148	243	–	–	–	–
CCC[C@@H](NC(=O)[C@]1(C)CSC(/C(C)=N/O[Si](c2ccccc2)(c2ccccc2)C(C)(C)C)=N1)c1cc(O)cc(=O)o1 [Compound 184]	–	–	–	–	4460	2970	4790	4130
CCCCCCCOc1cc([C@@H](CCC)NC(=O)[C@]2(C)CSC(/C(C)=N\O)=N2)oc(=O)c1 [Compound 72a]	103	183	110	125	–	–	–	–
CCC[C@@H](NC(=O)[C@]1(C)CSC(/C(C)=N/OCCC2COC(C)(C)O2)=N1)c1cc(OCC2CC2)cc(=O)o1 (stereo partly shown) [Compound 159]	67.3	63.7	49.1	50.9	–	–	–	–
CCC[C@@H](NC(=O)[C@]1(C)CSC(/C(C)=N/OCCCN)=N1)c1cc(OC)cc(=O)o1 [Compound 98]	34.2	25.1	22.1	27.4	–	–	–	–
CCC[C@@H](NC(=O)[C@]1(C)CSC(C(C)=O)=N1)c1cc(OCC2CC2)cc(=O)o1 [Compound 65]	1030	1080	1890	1250	–	–	–	–
CCC[C@@H](NC(=O)[C@]1(C)CSC(/C(C)=N/OCCCCO[Si](C)(C)C(C)(C)C)=N1)c1cc(OC)cc(=O)o1 [Compound 146]	–	–	–	–	2820	1020	1940	2110
CCC[C@@H](NC(=O)[C@]1(C)CSC(/C(C)=N/OC)=N1)c1cc(OC)cc(=O)o1 [Compound 2]	430	212	253	329	–	–	–	–
C#CCO/N=C(\C)C1=N[C@](C)(C(=O)N[C@H](CCC)c2cc(OC)cc(=O)o2)CS1 [Compound 94]	35.8	22.6	35.8	35.8	–	–	–	–
CCC[C@@H](NC(=O)[C@]1(C)CSC(/C(C)=N/O[C@H]2O[C@@H]3COC(C)(C)O[C@H]3[C@@H]3OC(C)(C)O[C@H]23)=N1)c1cc(OCC2CC2)cc(=O)o1 [Compound 179]	13.7	6.48	9.04	14.3	–	–	–	–
C=C(OCC)C1=N[C@](C)(C(=O)N[C@H](CCC)c2cc(OCC3CC3)cc(=O)o2)CS1 [Compound 185]	228	207	161	140	–	–	–	–
CCC[C@@H](NC(=O)[C@@]1(C)CSC(/C(C)=N/O)=N1)c1cc(OCC2CC2)cc(=O)o1 [Compound 137]	149	109	126	145	–	–	–	–
CCC[C@@H](NC(=O)[C@]1(C)CSC(/C(C)=N/O[C@H]2O[C@H](CO)[C@@H](O)[C@H](O)[C@@H]2O)=N1)c1cc(OCC2CC2)cc(=O)o1 [Compound 181]	6340	4970	> 17100	6850	–	–	–	–
CCCCCCCCCCCCCCCCCOc1cc([C@@H](CCC)NC(=O)[C@]2(C)CSC(C(C)=O)=N2)oc(=O)c1 [Compound 62]	1690	1100	1610	1640	–	–	–	–

From US12215100B2, “Anticancer compounds” (Pharma Mar, S.A., priority 2018, dated 2025)
